Assay results as given in patent publication US20250008959A1, “HERBICIDES AND USE THEREOF” (Projini Agchem LTD, priority 2021, published 2025).

Key:
[1] = molecular target: T1, OASS-SAT complex (AtOASS with SAT-derived peptide) (Arabidopsis thaliana, UniProt P47998); test: Fluorescence polarization (FP) competition with FITC-labeled SAT-derived peptide bound to OASS; assay type: binding; details: competition with FITC-SAT peptide 200 nM, OASS 2.2 μM; for IC50: single site inhibition model
T1 construct: GST (N, cleaved yes); made in house; host or cells: E. coli Rosetta (DE3)
Method: Molecules were also tested for their ability to compete with the OASS binding to the SAT-derived peptide via a fluorescence polarization (FP) competition assay wherein the N-terminus labeled peptide was incubated with the AtOASS (see Examples section below). High FP values correspond to the peptide-bound state (low molecule concentrations) and low FP values correspond to the peptide-free state (low FP values). To extract the IC50, the FP data were fitted to a single site inhibition model in PRISM by GraphPad Software. The corresponding IC50 values were extracted, whereas low IC50 values correspond to molecule that better competes with the peptide binding to AtOASS. Fluorescence polarization (FP) measurements were made on samples arrayed in 96-well plates by using BioTek H1 Synergy instrument equipped with FP module. […] The peptide in a concentration of 200 nM was incubated with OASS at a concentration of 2.2 μM in each well. Variable concentrations of each molecule starting from 100 μM down to 0.048 μM were added to evaluate the ability of each molecule to compete off the FITC labeled peptide bound to OASS. Fluorescence experiments were executed with an Em/Exc wavelengths of 480/520 nm. All measurements were done in triplicate. Experimental polarization data from simple and competitive binding experiments were fitted using GraphPad Prism, with error bars representing SD. Molecules were also tested for their ability to compete with the OASS binding to the SAT-derived peptide via a fluorescence polarization (FP) competition assay. The N-terminus labeled peptide was incubated with the AtOASS in each of the wells in a 96-well plate. Various concentrations of the molecules were added and the FP values were recorded. High FP values correspond to the peptide-bound state (low molecule concentrations) and low FP values correspond to the peptide-free state (low FP values). To extract the IC50, the FP data were fitted to a single site inhibition model in graphpad prism. The corresponding IC50 values were extracted. Low IC50 values correspond to molecule that better competes with the peptide binding to AtOASS.

Arabidopsis thaliana = test: Root elongation in plates (in planta root elongation assay); assay type: in vivo; details: 168 h, A. thaliana on MS medium plates, 7 days, read-out: Root-growth inhibition %
Method: 6-well plates were prepared in a biological hood with sterile half Murashige and Skoog mineral medium (MS; Duchefa, Haarlem, Netherlands) containing 1% sucrose (w/v), pH 5.8. Tested molecules were dissolved in 50 mM DMSO and diluted to various concentrations 1,000-fold greater than the final desired concentration the MS medium maintaining a final concentration of 0.1% DMSO. MS medium with 0.1% DMSO was used as a negative control. After 7 days the plates were scanned and the root length was calculated using the imageJ software. […] Further sterilization was done by washing the seeds with 50% hypochlorite and 0.2% Triton x-100 for 10 minutes followed by five cycles of washing with sterile water. Six seeds were placed in each well, and the plates were covered and sealed with parafilm. Plates were placed vertically at 4° C. for two days and then transferred to a growth chamber for seven days (22-24° C.) at day/light cycles of 16/8 hours. Following the in vitro evaluation, selected molecules were tested for their ability to inhibit A. thaliana root elongation on agar plates. Seeds were plated on medium containing the molecules dissolved in the indicated concentrations and root length was measured after 6 or 7 days when the root in the non-treated plate reached the end of the well.

T1 sequence (P47998 whole entry, one chain of several): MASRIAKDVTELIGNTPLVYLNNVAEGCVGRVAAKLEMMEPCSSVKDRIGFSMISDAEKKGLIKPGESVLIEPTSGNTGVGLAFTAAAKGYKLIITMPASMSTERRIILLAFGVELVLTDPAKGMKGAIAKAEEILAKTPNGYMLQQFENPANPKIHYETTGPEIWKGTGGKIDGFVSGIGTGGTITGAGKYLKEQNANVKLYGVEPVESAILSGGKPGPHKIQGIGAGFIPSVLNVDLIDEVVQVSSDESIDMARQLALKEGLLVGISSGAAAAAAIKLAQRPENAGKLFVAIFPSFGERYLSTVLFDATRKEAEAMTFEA

Structure (SMILES)	FP % inhibition [1] [%]	IC50 [1] [µM]	inhibition at 50 µM (Arabidopsis thaliana) [%]
COc1ccc(C(=O)O)c(NS(=O)(=O)c2cnn(-c3ccc(F)cc3)c2)c1 [PJL-121]	4.6	322	72
O=C(O)c1ccc(Cl)c(S(=O)(=O)Nc2cccc(C(=O)Nc3cccc(C(F)(F)F)c3)c2)c1 [PJS-227]	18	54.2	39
Cc1ccnc(-n2cc(S(=O)(=O)Nc3ccc(F)cc3C(=O)O)cn2)c1 [PJL-86]	36	20	0
CN(C)c1ncn(-c2cccc(NS(=O)(=O)c3cc(C(=O)O)cc4c3CCC4)c2)n1 [PJL-74]	26	22	9
CCc1nnc(-c2ccc(O)c(NC(=O)Cc3ccccc3C(=O)O)c2)o1 [PJL-92]	13	122	0
COc1ccc(NS(=O)(=O)c2cc(C(=O)O)cc3c2CCC3)cc1Cl [PJL-21]	14	149	0
O=C(O)c1ccc(O)cc1NS(=O)(=O)c1cnc(-c2ccccc2)o1 [PJL-82]	11	150	0
COc1ccc(C(=O)O)c(-c2cc(N)ccc2C(=O)Nc2nc(-c3ccc(Cl)cc3Cl)cs2)c1 [PJL-133]	48	7.6	–
CC(C)(C)NC(=O)c1cccc(NC(=O)c2ccccc2-c2ccccc2C(=O)O)c1 [PJL-59]	19	58	6
O=C(O)c1cc2c(c(S(=O)(=O)Nc3cccc(C(=O)Nc4ccccn4)c3)c1)CCC2 [PJL-70]	15	–	0
O=C(O)c1ccccc1-c1ccccc1C(=O)Nc1cc(-c2ccc(Cl)cc2Cl)c[nH]c1=O [PJL-120]	14	115	88
CC(=O)Nc1ccc(C(=O)Nc2nc(-c3ccc(Cl)cc3Cl)cs2)c(-c2ccccc2C(=O)O)c1 [PJL-129]	43	11	–
O=C(O)c1ccccc1-c1cc(CO)ccc1C(=O)Nc1nc(-c2ccc(Cl)cc2Cl)cs1 [PJL-131]	42	9.3	–
O=C(O)c1ccccc1-c1ccc(O)cc1C(=O)Nc1nc(-c2ccc(Cl)cc2Cl)cs1 [PJL-132]	51	4.5	–
COc1ccc(-c2csc(NC(=O)c3cccc(C)c3-c3ccccc3C(=O)O)n2)cc1 [PJL-128]	41	18.5	–
COc1ccc(-c2csc(NC(=O)c3ccc(C)cc3-c3ccccc3C(=O)O)n2)cc1 [PJL-125]	56	3.4	–

Second part, led by results:

FP % inhibition [1] [%]	IC50 [1] [µM]	Structure (SMILES)	inhibition at 50 µM (Arabidopsis thaliana) [%]
22	43	CC(C)c1n[nH]c(-c2cccc(NC(=O)Cc3ccccc3C(=O)O)c2)n1 [PJL-96]	2
13	206	Cc1cc2cc(NS(=O)(=O)c3cc(C(=O)O)cc4c3CCC4)ccc2[nH]1 [PJL-22]	0
52	3.4	O=C(O)c1ccccc1-c1cc(O)ccc1C(=O)Nc1nc(-c2ccc(Cl)cc2Cl)cs1 [PJL-130]	93
25	–	CCc1ccc(C(=O)O)c(NS(=O)(=O)c2cnc(-c3ccc(F)cc3)s2)c1 [PJL-122]	–
15	111	COc1ccccc1-n1cc(S(=O)(=O)Nc2ccc(F)cc2C(=O)O)cn1 [PJL-85]	0
52	8.56	O=C(O)c1cc(F)ccc1-c1ccccc1C(=O)Nc1nc(-c2ccc(Cl)cc2Cl)cs1 [PJL-119]	100
16	–	COc1cc(NS(=O)(=O)c2cnc(-c3ccc(F)cc3)s2)c(C(=O)O)cc1F [PJL-123]	–
13	55	O=C(Cc1ccccc1C(=O)O)Nc1cc(C(=O)Nc2cccnc2)ccc1F [PJL-91]	–
